Entries after “also recorded” stand apart in the source; their conditions may differ.
Key:
Type in all cases: cell-based
Kv7.1/KCNE1 = Kv7.1/KCNE1 (Homo sapiens, UniProt P51787); assay: Two-electrode voltage clamp in Xenopus laevis oocytes, Kv7.1/KCNE1; conditions: BBP 10 μM, TEVC, n = 5
Description: (§1) cRNA was prepared from linearized plasmids using the mMESSAGE mMACHINE T7 kit (Ambion, USA) and quantified by UV spectroscopy (NanoDrop, Thermo Scientific, Wilmington, USA). Xenopus laevis oocytes were acquired from EcoCyte Bioscience (Castrop-Rauxel, Germany). Oocytes were injected with 50 nL cRNA and currents were recorded after 2 days of incubation at 19°C. Currents were recorded at a sampling rate of 10 kHz using a TEVC amplifier (Dagan CA-1B; IL, USA), and borosilicate glass recording electrodes (Module Ohm, Herlev, Denmark), made with a DMZ Universal Puller (Zeitz Instruments, Martinsried, Germany) with a resistance of 0.5–1 MΩ when filled with 2 M KCl. Oocytes were superfused with Kulori (pH 7.4) solution containing NaCl 90 mM, KCl 4 mM, MgCl2 1 mM, CaCl2 1 mM, 4-(2-hydroxyethyl)-1-piperazineethanesulfonic acid 5 mM, and currents were elicited with the voltage protocols previously indicated (Skarsfeldt et al., [2016]), from a holding potential of −80 mV. […]
(§2) To assess the effect of BBP on other calcium-activated potassium channels (hBK, hSK3 WT, rSK3 H491N, and hIK), each individual current was first normalized to its cell size using membrane's capacitance (pA/pF) before statistical analysis. […] Statistical significance between saline and the effect of both BBP and the corresponding reference compound was determined for each channel using one-way ANOVA analysis. […]

hERG channel = hERG channel (Homo sapiens, UniProt Q12809); assay: Automated patch clamp, stable CHO cell line expressing hERG; conditions: BBP 10 μM, automated patch clamp, CHO, n = 5
hERG channel, sequence (Q12809 whole entry): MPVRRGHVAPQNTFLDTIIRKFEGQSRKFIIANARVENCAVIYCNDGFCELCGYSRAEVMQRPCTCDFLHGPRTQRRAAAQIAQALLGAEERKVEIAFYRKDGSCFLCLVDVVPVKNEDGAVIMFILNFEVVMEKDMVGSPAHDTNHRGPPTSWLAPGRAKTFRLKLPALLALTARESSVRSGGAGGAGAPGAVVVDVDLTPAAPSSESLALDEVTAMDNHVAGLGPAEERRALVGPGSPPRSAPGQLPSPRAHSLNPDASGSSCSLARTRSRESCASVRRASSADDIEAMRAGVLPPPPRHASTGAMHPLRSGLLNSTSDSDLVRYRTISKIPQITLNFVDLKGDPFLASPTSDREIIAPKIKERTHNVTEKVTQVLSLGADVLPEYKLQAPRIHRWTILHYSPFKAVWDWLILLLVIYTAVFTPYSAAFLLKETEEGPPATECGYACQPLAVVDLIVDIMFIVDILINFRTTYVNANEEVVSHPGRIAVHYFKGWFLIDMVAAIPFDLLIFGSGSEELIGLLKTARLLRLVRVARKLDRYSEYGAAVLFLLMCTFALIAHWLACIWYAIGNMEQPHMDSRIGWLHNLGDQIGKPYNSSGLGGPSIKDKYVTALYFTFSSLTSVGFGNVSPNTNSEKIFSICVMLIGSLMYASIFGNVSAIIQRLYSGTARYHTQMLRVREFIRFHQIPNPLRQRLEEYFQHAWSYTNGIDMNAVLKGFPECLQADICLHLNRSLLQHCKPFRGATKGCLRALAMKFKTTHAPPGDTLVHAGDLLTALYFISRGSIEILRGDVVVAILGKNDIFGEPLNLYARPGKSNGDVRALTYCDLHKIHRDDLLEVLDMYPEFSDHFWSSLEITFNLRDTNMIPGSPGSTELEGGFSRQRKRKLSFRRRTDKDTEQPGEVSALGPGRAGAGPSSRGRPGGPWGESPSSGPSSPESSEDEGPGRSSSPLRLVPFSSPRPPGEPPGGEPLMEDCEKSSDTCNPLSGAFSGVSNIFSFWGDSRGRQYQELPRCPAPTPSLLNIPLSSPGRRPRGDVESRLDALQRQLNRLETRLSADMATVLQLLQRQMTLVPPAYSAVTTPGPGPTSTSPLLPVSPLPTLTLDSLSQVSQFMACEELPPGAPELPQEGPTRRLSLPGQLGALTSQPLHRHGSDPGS
Description: Three different stable HEK293 cell lines expressing hSK1, hSK2 or hSK3 (NeuroSearch A/S, Ballerup, Denmark) and a CHO stable cell line expressing hERG (University of Copenhagen, Copenhagen, Denmark) were used for automated patch clamp. These cells were cultivated and prepared as previously described (Skarsfeldt et al., [2016]).
Automated patch clamp (QPatch 16, Sophion, Denmark) on SK-expressing HEK293 cell lines was conducted as previously described (Simó-Vicens et al., [2017b]). Briefly, SK currents were elicited by voltage-ramps starting at −80 mV and finishing at +80 mV from a holding potential of 0 mV. Extracellular solution contained 0.1 mM CaCl2, 3 mM MgCl2, 154 mM KCl, 10 mM HEPES and 10 mM glucose with pH 7.4. Intracellular solution for SK experiments contained 8.106 mM CaCl2 (final free calcium concentration of 400 nM), 1.167 mM MgCl2, 10 mM EGTA, 154 mM KCl, 10 mM HEPES, 31.25/ 10 mM KOH/EGTA and 15 mM KOH with pH 7.2. […]
as §2

Kv4.3/KCHIP2 = molecular target: T1, Kv4.3/KCHIP2 (Homo sapiens, UniProt Q9UK17); assay: Two-electrode voltage clamp in Xenopus laevis oocytes, Kv4.3/KCHIP2; conditions: BBP 10 μM, TEVC, n = 5
T1 sequence (Q9UK17 1-655): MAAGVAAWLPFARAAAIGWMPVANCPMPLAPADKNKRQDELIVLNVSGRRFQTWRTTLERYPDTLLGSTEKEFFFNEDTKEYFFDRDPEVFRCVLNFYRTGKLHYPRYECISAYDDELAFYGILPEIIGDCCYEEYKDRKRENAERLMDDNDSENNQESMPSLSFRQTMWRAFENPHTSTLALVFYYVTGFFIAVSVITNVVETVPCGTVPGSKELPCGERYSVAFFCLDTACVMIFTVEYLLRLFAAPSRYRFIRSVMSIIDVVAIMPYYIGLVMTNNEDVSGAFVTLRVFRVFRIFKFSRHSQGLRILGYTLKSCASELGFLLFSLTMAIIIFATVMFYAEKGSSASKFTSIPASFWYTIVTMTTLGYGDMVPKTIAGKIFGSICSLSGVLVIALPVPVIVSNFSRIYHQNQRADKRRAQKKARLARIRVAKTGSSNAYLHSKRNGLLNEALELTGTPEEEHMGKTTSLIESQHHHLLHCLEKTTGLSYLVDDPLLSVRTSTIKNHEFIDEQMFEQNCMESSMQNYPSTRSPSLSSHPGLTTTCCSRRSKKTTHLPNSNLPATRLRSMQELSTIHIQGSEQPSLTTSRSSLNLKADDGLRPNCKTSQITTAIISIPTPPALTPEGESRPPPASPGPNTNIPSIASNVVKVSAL
T1 sequence (Q9NS61 1-270 partner): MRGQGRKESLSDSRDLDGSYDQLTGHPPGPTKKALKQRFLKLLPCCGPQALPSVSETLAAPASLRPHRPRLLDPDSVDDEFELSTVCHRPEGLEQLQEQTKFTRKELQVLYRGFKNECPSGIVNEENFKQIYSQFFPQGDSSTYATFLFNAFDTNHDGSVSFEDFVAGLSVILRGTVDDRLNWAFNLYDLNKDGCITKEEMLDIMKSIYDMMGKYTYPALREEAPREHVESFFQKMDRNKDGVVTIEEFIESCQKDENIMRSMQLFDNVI
Description: as §1, §2

SMILES: c1cc(-c2nc3ccccc3[nH]2)nc(-c2nc3ccccc3[nH]2)c1 [BBP, 2,6-Bis(2-benzimidazolyl)pyridine]
- Effect on Kv7.1/KCNE1 current (Kv7.1/KCNE1): did not have any effect; also recorded: did not significantly affect
- Reduction of hERG current (hERG channel): 19 ± 3%
- Effect on Kv4.3/KCHIP2 current (Kv4.3/KCHIP2): did not have any effect; also recorded: did not significantly affect

— PMC6287599, “2,6-Bis(2-Benzimidazolyl)Pyridine (BBP) Is a Potent and Selective Inhibitor of Small Conductance Calcium-Activated Potassium (SK) Channels” (Frontiers in Pharmacology, 2018)
